The text below walks through data of paper PMC7615677 (Science translational medicine, 2023).

Series [1] in a line: In vitro metabolism, liver microsomes. In kind it is in vitro ADME, dog. As to the method:
Compounds were spiked into microsomal matrix prepared in 0.1 M pH 7.4 phosphate buffer containing magnesium chloride (final concentration of 3.3 mM), equilibrated for 5-10 min at 37°C. The reaction was initiated with the addition of freshly prepared solution of NADPH (final 1.3 mM). Control samples without co-factor were included for comparison. Aliquots of the reaction mixtures were taken periodically over 60 min and quenched with acetonitrile containing internal standards (metolazone and diazepam). Quenched samples were maintained on ice for approximately 20-30 min, centrifuged (for 5 min) and the supernatant was analyzed by LC-MS.
(§1) In vitro intrinsic clearance (CLint, μL/min/mg or μL/min/10^6 cells) values were calculated from the apparent first order degradation rate constant divided by the microsome concentration or the hepatocyte cell number (10^6 viable cells/mL). In vitro CLint values were then divided by the fraction unbound in the in vitro test system (to give CLint,u) and scaled to in vivo values (mL/min/kg) using published physiological scaling factors ([28]). Blood clearance in each species was then calculated using the well-stirred model of hepatic extraction (equation 2) where Q is the hepatic blood flow and fu,blood is calculated from fu,plasma/B:P: [2] PredictedCLblood=Q x fu,blood x CLint,u/Q+fu,blood x CLint,u
(§2) Blood clearance values were converted to plasma clearance by multiplying by the B:P.

A short description of series [2]: In vitro metabolism, cryopreserved hepatocytes. In kind it is in vitro ADME, human. Here is the method: (§3) Cell viability was determined using trypan blue exclusion. The incubation was performed on a plate shaker (Heidolph Titrimax 100, 900 rpm) placed in a humidified incubator (37°C, 7.5% CO2) for 240 min. The reaction was initiated with the addition of compound with samples taken periodically and quenched with the addition of acetonitrile containing internal standards (metolazone and diazepam). Quenched samples were maintained on ice for approximately 20-30 min, centrifuged (for 5 min) and the supernatant analyzed by LC-MS.
as §1, §2

A short description of series [3]: In vitro metabolism, cryopreserved hepatocytes. Format: in vitro ADME, mouse. As to the method:
as §3, §1, §2

Series [4] has as its system hiPSc-CMs (cardiomyocytes). The series is described as follows: hiPSc-CM multielectrode (MEA) assay. Format: cell-based, human. The following applies: 0.37, 1.11, 3.33, 10 and 30 µM. As to the method: The hIPSc-CM assay was conducted to identify DNDI-6174-induced changes in field potential duration (FPD ≈ QT interval), total spike amplitude (TSA ≈ QRS interval) and beat rate. Inducible pluripotent stem cell-derived cardiomyocytes (hiPSc-CMs, iCell2, Cellular Dynamics) were maintained in culture medium (50,000 cells/well) for 7 days. Full media changes were done every 48 h. Following baseline recording, and right after the 1 hour compound treatment time (n=8/concentration, 5 concentrations), 1 min recording of activity was taken daily starting on Day 3 through Day 7 using the Maestro multi-electrode Array System (Axion BioSystems; 48 or 96-well plate). 3μM Quinidine was used as a control for hERG and hNaV1.5 block.

Series [5] addresses BCRP (Homo sapiens, UniProt Q9UNQ0). The series is described as follows: Drug transporter inhibition panel. In kind it is in vitro ADME. The note with it: 1 and 10 μM. An excerpt:
(§4) Listed values represent the percent change relative to the DMSO control activity. When an IC50 had to be determined, eight different concentrations were included. All values are the mean of assay readout duplicates.

Series [6] deals with BSEP (Homo sapiens, UniProt O95342). The experiment in a line: Drug transporter inhibition panel. Format: in vitro ADME. The following applies: 1 and 10 μM.
BSEP, sequence (O95342 whole entry, species assumed): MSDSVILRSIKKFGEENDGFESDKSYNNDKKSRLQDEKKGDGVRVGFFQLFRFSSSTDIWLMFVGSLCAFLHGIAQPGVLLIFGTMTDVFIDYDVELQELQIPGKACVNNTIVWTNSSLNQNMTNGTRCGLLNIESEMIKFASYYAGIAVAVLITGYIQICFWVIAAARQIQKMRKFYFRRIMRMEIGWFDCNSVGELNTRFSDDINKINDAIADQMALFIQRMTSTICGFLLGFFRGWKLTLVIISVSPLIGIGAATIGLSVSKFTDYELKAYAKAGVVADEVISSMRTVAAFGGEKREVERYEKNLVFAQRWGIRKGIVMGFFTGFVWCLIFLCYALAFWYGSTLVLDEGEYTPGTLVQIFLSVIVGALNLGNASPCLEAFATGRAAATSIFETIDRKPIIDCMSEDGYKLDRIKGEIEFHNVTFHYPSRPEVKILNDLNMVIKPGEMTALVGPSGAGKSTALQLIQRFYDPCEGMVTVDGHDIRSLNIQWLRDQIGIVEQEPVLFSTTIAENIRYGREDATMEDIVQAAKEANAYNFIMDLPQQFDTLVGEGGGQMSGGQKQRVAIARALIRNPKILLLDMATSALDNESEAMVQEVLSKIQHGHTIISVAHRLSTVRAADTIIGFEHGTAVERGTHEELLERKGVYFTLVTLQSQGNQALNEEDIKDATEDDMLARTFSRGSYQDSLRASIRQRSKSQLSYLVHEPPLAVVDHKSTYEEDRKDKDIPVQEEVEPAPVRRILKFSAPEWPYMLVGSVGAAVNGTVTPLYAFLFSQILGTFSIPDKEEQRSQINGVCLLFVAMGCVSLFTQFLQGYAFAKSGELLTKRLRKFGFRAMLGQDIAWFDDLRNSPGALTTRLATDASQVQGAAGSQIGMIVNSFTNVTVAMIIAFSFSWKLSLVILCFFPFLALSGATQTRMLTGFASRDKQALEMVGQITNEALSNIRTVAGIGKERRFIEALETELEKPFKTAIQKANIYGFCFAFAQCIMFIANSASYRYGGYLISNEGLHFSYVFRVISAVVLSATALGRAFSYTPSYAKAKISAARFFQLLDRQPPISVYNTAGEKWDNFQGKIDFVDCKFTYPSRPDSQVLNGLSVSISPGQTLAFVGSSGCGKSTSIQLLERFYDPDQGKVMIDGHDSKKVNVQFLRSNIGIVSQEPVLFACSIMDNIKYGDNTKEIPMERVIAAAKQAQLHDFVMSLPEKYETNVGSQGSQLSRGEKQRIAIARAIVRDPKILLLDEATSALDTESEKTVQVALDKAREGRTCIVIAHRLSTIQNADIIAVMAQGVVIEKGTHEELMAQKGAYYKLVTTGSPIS
Text: as §4

Series [7] has as its target T1, MATE2-K (Homo sapiens, UniProt Q86VL8).
T1 construct: Eurofins
The experiment in a line: Drug transporter inhibition panel. In kind it is in vitro ADME.
Text: as §4

The target in series [8] is T2, OAT1 (Homo sapiens, UniProt Q4U2R8).
T2 construct: Eurofins
T2 sequence (Q4U2R8 whole entry): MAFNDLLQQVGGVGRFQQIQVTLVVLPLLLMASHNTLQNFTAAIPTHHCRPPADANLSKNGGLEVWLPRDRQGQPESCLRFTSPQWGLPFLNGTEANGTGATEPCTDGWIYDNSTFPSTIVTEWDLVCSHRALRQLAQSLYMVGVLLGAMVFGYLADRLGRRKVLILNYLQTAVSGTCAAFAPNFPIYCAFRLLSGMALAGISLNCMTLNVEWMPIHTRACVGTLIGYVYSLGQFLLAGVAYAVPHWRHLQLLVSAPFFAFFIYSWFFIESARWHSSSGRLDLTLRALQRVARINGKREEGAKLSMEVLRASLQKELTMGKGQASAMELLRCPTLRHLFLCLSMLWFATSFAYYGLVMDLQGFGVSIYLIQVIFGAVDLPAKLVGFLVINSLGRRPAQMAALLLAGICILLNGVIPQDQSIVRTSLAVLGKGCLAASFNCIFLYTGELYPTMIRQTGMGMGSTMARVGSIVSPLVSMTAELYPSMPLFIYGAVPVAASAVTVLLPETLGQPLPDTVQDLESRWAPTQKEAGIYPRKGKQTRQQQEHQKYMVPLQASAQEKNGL
The experiment in a line: Drug transporter inhibition panel. Format: in vitro ADME. The following applies: 1 and 10 μM.
Text: as §4

Series [9] addresses T3, OAT3 (Homo sapiens, UniProt Q8TCC7).
T3 construct: Eurofins
The experiment in a line: Drug transporter inhibition panel. Format: in vitro ADME. The note with it: 1 and 10 μM.
Text: as §4

In series [10] the target is T4, OATP1B1 (Homo sapiens, UniProt Q9Y6L6).
T4 construct: Eurofins
T4 sequence (Q9Y6L6 whole entry): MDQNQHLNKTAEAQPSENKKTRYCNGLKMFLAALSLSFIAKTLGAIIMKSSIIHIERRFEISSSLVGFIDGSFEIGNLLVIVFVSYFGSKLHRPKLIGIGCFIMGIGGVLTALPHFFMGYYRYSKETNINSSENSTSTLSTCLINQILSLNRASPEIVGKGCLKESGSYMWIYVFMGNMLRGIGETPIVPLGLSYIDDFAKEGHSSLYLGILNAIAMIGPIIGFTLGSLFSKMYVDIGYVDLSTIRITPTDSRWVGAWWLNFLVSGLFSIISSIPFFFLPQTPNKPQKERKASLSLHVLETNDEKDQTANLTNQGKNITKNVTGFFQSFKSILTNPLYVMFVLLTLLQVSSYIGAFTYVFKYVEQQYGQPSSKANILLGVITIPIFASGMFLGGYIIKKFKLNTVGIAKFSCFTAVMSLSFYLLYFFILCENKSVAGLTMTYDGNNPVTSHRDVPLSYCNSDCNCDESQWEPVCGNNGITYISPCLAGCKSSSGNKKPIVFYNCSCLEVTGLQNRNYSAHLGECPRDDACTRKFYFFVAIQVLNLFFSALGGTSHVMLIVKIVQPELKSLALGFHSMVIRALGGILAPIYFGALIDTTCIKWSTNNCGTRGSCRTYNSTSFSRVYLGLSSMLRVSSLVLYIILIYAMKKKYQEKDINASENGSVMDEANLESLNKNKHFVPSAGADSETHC
The series is described as follows: Drug transporter inhibition panel. Format: in vitro ADME.
Text: as §4

Series [11] has as its target T5, OATP1B3 (Homo sapiens, UniProt Q9NPD5).
T5 construct: Eurofins
The experiment in a line: Drug transporter inhibition panel. In kind it is in vitro ADME.
Text: as §4

In series [12] the target is T6, OCT1 (Homo sapiens, UniProt O15245).
T6 construct: Eurofins
T6 sequence (O15245 whole entry): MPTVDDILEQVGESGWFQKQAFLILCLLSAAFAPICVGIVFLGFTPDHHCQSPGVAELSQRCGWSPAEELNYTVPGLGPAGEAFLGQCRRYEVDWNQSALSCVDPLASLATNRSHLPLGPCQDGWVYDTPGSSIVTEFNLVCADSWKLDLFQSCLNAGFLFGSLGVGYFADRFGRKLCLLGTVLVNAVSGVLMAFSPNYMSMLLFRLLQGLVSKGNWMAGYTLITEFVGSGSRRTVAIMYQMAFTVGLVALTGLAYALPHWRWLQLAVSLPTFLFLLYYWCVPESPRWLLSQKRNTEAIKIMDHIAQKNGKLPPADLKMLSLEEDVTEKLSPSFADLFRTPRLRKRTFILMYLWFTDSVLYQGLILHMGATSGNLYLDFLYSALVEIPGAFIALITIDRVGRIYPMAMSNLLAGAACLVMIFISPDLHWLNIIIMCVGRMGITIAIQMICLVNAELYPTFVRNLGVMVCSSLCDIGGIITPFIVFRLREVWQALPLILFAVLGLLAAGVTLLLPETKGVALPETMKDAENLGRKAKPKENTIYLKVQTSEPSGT
The experiment in a line: Drug transporter inhibition panel. Format: in vitro ADME. The note with it: 1 and 10 μM.
Text: as §4

Series [13] addresses T7, OCT2 (Homo sapiens, UniProt O15244).
T7 construct: Eurofins
The experiment in a line: Drug transporter inhibition panel. In kind it is in vitro ADME. The following applies: 1 and 10 μM.
Text: as §4

“Also recorded” adds a separate entry of the source.

BCRP, sequence (Q9UNQ0 whole entry, species assumed): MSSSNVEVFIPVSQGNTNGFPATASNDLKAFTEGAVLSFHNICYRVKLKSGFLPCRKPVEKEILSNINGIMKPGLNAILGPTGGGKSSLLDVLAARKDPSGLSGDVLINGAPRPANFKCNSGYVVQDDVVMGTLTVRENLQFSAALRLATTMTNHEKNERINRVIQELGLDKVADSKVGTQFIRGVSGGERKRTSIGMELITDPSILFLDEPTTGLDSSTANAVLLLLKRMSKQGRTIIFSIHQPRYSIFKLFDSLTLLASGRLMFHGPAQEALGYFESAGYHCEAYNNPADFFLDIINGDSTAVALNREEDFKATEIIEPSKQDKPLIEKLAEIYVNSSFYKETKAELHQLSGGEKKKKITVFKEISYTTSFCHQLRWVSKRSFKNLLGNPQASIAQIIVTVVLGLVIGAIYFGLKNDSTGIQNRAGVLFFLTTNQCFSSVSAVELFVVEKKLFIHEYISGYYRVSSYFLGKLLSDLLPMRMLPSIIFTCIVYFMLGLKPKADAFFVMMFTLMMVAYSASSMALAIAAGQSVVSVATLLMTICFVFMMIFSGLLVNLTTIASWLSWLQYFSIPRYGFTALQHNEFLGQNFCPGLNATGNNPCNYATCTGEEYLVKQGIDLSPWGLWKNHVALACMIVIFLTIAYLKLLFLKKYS
T1 sequence (Q86VL8 1-566 isoform Q86VL8-3): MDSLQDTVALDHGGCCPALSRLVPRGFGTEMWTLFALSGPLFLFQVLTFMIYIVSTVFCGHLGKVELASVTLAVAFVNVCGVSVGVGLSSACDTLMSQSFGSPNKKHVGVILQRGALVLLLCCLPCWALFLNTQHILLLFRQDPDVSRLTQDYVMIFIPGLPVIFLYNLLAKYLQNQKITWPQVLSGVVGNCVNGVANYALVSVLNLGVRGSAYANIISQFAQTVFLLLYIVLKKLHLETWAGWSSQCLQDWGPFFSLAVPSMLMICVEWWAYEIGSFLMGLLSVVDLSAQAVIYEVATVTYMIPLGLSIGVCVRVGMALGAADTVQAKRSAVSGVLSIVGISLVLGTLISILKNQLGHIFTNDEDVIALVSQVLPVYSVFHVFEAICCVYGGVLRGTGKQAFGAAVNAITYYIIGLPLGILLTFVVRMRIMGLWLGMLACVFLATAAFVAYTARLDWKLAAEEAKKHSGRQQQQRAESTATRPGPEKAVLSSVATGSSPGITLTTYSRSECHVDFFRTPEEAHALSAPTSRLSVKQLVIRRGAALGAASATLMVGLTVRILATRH
T3 sequence (Q8TCC7 whole entry): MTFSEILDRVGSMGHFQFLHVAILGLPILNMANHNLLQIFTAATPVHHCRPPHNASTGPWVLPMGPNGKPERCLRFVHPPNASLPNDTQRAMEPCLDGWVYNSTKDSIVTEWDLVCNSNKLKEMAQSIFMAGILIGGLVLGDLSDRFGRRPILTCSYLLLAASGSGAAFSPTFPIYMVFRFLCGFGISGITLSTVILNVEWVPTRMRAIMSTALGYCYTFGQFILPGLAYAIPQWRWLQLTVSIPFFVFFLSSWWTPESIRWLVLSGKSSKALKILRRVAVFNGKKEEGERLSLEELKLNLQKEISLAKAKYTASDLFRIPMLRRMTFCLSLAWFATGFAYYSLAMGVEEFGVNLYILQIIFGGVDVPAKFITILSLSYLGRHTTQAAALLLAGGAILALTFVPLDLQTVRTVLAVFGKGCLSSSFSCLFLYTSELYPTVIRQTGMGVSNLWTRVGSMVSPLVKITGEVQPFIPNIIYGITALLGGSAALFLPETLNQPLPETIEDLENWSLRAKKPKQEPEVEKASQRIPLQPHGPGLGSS

Turning to `Cc1[nH]c2nc(N)nc(C)c2c1-c1ccc(C#N)c2c1OCO2` [DNDI-6174], the “Microsome predicted in vivo CLplasma” value in series [1] (Dog) is 0.91 mL/min/kg. Further, in series [1] (Dog, 2 independent experiments), the “In vitro Microsome CLint” value is given as 4.8 ± 0.47 µL/min/mg. In addition, in series [1] (dog, liver microsomes, pH 7.4, Dog, 2 independent experiments, read-out: In vitro Microsome CLint), the microsomal CLint at 0.5 µM is 8.3 ± 0.65 µL/min/mg. Also, the “Hepatocyte predicted in vivo CLplasma” value is given as 0.31 mL/min/kg in [2] (Human) and 17 mL/min/kg in [3] (Mouse). Besides, the hepatocyte CLint at 0.5 µM came out at 1.1 ± 0.27 µL/min/1e6 cells in [2] (human, cryopreserved hepatocytes) and 9.7 ± 0.091 µL/min/1e6 cells in series [3] (mouse, cryopreserved hepatocytes). Further, the “field potential duration, spike amplitude and beat period, in words” value in series [4] was “no notable change in the field potential duration; also recorded: No significant change in the field potential”. For the same molecule, the activity remaining in series [5], in [6], in series [8], in series [9], in [12] and in series [13] was > 50% throughout. Moreover, the 50% inhibitory concentration (IC50) is 0.88 µM in series [7], 22 µM in series [10] and 16 µM in [11].
